According to US6514978B2, “Thromboresistant materials incorporating pyrazinone protease inhibitors” (3-Dimensional Pharmaceuticals, Inc., priority 1998, dated 2003):
Where a name gives a salt, the structure may show the parent alone.

Target: T1, human α-thrombin (Homo sapiens, UniProt P00734)
T1 construct: Purified human α-thrombin; purchased Enzyme Research Laboratories (South Bend, Ind.)
Test: In vitro inhibition of purified enzymes: Ki determination, thrombin (hydrolysis of N-succinyl-Ala-Ala-Pro-Arg-p-nitroanilide)
Type: biochemical
Conditions: purified human α-thrombin 0.5 nM, 50 mM HEPES, 200 mM NaCl, pH 7.5, 37° C., 4.3% DMSO
Description: Reagents: All buffer salts were obtained from Sigma Chemical Company (St. Louis, Mo.), and were of the highest purity avalable. The enzyme substrates, N-benzoyl-Phe—Val—Arg-p-nitroanilide (Sigma B7632), N-benzoyl-Ile—Glu—Gly—Arg-p-nitroanilide hydrochloride (Sigma B2291), N-p-Tosyl-Gly—Pro—Lys-p-nitroanilide (Sigma T6140), N-succinyl-Ala—Ala—Pro—Phe-p-nitroanilide (Sigma S7388) and N-CBZ-Val—Gly—Arg-p-nitroanilide (Sigma C7271) were obtained from Sigma.
Human α-thrombin, human factor Xa and human plasmin were obtained from Enzyme Research Laboratories (South Bend, Ind.). Bovine α-chymotrypsin (Sigma C4129), bovine trypsin (Sigma T8642) and human kidney cell urokinase (Sigma U5004) were obtained from Sigma. Human leukocyte elastase was obtained from Elastin Products (Pacific, Mo.).
Ki Determinations: All assays are based on the ability of the test compound to inhibit the enzyme catalyzed hydrolysis of a peptide-p-nitroanililide substrate. […] The final concentrations for each of the substrates is listed below. […] Dilutions are prepared in DMSO yielding 8 final concentrations encompassing a 200 fold concentration range. Enzyme solutions are prepared at the concentrations listed below in assay buffer.
Data corresponding to less than 10% of the total substrate hydrolysis were used in the calculations. The ratio of the velocity (rate of change in absorbance as a function of time) for a sample containing no test compound is divided by the velocity of a sample containing test compound, and is plotted as a function of test compound concentration. The data are fit to a linear regression, and the value of the slope of the line calculated. The inverse of the slope is the experimentally determined K value.
Thrombin: Thrombin activity was assessed as the ability to hydrolyze the substrate N-succinyl-Ala—Ala—Pro—Arg-p-nitroanilide. […] Final DMSO concentration was 4.3%. […] Final reagent concentrations were: [thrombin]=0.5 nM, [substrate N-succinyl-Ala—Ala—Pro—Arg-p-nitroanilide]=32 mM.

| Ki | SMILES |
| --- | --- |
| 46 nM | Cc1cnc(NCCc2ccccc2)c(=O)n1CC(=O)NCCONC(=N)N [Example 1, 1-{N-[2-(amidinoaminooxy)ethyl]amino}carbonylmethyl-6-methyl-3-(phenethylamino)-pyrazinone trifluoroacetate] |
| 330 nM | Cc1c(Cl)nc(NCCc2ccccc2)c(=O)n1CC(=O)NCCONC(=N)N [Example 2, 1-{N-[2-(amidinoaminooxy)ethyl]amino}carbonylmethyl-5-chloro-6-methyl-3-(phenethylamino)-pyrazinone trifluoroacetate] |
| 85 nM | Cc1c(Cl)nc(NCC(c2ccccc2)c2ccccc2)c(=O)n1CC(=O)NCCONC(=N)N [Example 4, 1-{N-[2-(amidinoaminooxy)ethyl]amino}carbonylmethyl-5-chloro-6-methyl-3-(2,2-diphenylethylamino)-pyrazinone trifluoroacetate] |
| 20 nM | Cc1ccc(CCNc2ncc(C)n(CC(=O)NCCONC(=N)N)c2=O)cc1 [Example 5, 1-{N-[2-(amidinoaminooxy)ethyl]amino}carbonylmethyl-6-methyl-3-(4-methylphenethylamino)-pyrazinone trifluoroacetate] |
